In the supplement of paper PMC4862054:

What was measured:
Settings in all cases: incubation time: 72 h
BT-474 [1] = assay: normalised viability (% of control), CellTiter-Blue; higher = more viable cells (about 100 = DMSO control)
How it was run: (§1)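 Plates were quality-checked by Z'-factor and normalised to vehicle (100) and a positive kill control (0). The underlying assay incubated breast cancer cell lines for 72 h on 384-well plates with compound, then added 2.5 µl CellTiter-Blue for 2 h at 37 °C and read at 560/590 nm. The value is normalised viability at a single listed concentration of the series.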

BT-549 [2] = assay: as above
How it was run: as §1

DU-4475 [3] = assay: as above
How it was run: as §1

HCC1599 [4] = assay: as above
How it was run: as §1

HDQ-P1 [5] = assay: as above
How it was run: as §1

MDA-MB-231 [6] = assay: as above
How it was run: as §1

MDA-MB-436 [7] = assay: as above
How it was run: as §1

MDA-MB-453 [8] = assay: as above
How it was run: as §1

MFM-223 [9] = assay: as above
How it was run: as §1

BT-474 [10] = assay: drug sensitivity score (DSS), CellTiter-Blue viability (DSS (AUC-based score)); higher = stronger viability inhibition; extreme values may be limits of the assay
Protocol: (§2)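 DSRT with the CellTiter-Blue (resazurin reduction) viability readout, fluorescence 560/590 nm, 72 h incubation. Plates were normalised to DMSO and benzethonium chloride controls. DSS is computed from the area under the fitted dose-response curve (5 or 9 concentrations).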

BT-549 [11] = assay: as above
Protocol: as §2

CAL-120 = assay: as above
Protocol: as §2

CAL-148 = assay: as above
Protocol: as §2

CAL-51 = assay: as above
Protocol: as §2

CAL-85-1 = assay: as above
Protocol: as §2

DU-4475 [12] = assay: as above
Protocol: as §2

HCC1143 = assay: as above
Protocol: as §2

HCC1599 [13] = assay: as above
Protocol: as §2

HCC1937 = assay: as above
Protocol: as §2

HDQ-P1 [14] = assay: as above
Protocol: as §2

Hs578T = assay: as above
Protocol: as §2

MDA-MB-231 [15] = assay: as above
Protocol: as §2

MDA-MB-436 [16] = assay: as above
Protocol: as §2

MDA-MB-453 [17] = assay: as above
Protocol: as §2

MDA-MB-468 = assay: as above
Protocol: as §2

MFM-223 [18] = assay: as above
Protocol: as §2

SK-BR-3 = assay: as above
Protocol: as §2

With `CC1(C)NC(=O)N(c2ccc([N+](=O)[O-])c(C(F)(F)F)c2)C1=O` [Nilutamide] the normalised viability (BT-474 [1]; 100 nM) was 119%, the normalised viability (BT-549 [2]; 100 nM) was 99.6% and the normalised viability (DU-4475 [3]; 10 nM) was 100%. For the same molecule, the normalised viability (HCC1599 [4]; 100 nM) was 95.5%, the normalised viability (HDQ-P1 [5]; 10 nM) was 149% and the normalised viability (MDA-MB-231 [6]; 100 nM) was 106%. The normalised viability (MDA-MB-436 [7]; 100 nM) was 96.6%, the normalised viability (MDA-MB-453 [8]; 10 nM) was 112% and the normalised viability (MFM-223 [9]; 100 nM) was 92.4%. For the same molecule, the drug sensitivity score (BT-474 [10]) was 0, the drug sensitivity score (BT-549 [11]) was 0 and the drug sensitivity score (CAL-120) was 0. For the same molecule, the drug sensitivity score (CAL-148) was 0, the drug sensitivity score (CAL-51) was 0 and the drug sensitivity score (CAL-85-1) was 0. It also gave a drug sensitivity score (DU-4475 [12]) of 0, a drug sensitivity score (HCC1143) of 0 and a drug sensitivity score (HCC1599 [13]) of 0. The drug sensitivity score (HCC1937) was 0, the drug sensitivity score (HDQ-P1 [14]) was 0 and the drug sensitivity score (Hs578T) was 0. It also gave a drug sensitivity score (MDA-MB-231 [15]) of 0, a drug sensitivity score (MDA-MB-436 [16]) of 0 and a drug sensitivity score (MDA-MB-453 [17]) of 0. It also gave a drug sensitivity score (MDA-MB-468) of 0, a drug sensitivity score (MFM-223 [18]) of 0 and a drug sensitivity score (SK-BR-3) of 0.

In the case of `Cc1ccc(C(=O)Nc2ccc(CN3CCN(C)CC3)c(C(F)(F)F)c2)cc1C#Cc1cnc2cccnn12` [Ponatinib], the normalised viability (BT-474 [1]; 10 nM) is reported as 103%, the normalised viability (BT-549 [2]; 10 nM) is reported as 107% and the normalised viability (DU-4475 [3]; 1 nM) is reported as 105%. For the same molecule, the normalised viability (HCC1599 [4]; 10 nM) was 114%, the normalised viability (HDQ-P1 [5]; 1 nM) was 117% and the normalised viability (MDA-MB-231 [6]; 10 nM) was 101%. For the same molecule, the normalised viability (MDA-MB-436 [7]; 10 nM) was 101%, the normalised viability (MDA-MB-453 [8]; 1 nM) was 110% and the normalised viability (MFM-223 [9]; 10 nM) was 65.5%. For the same molecule, the drug sensitivity score (BT-474 [10]) was 0, the drug sensitivity score (BT-549 [11]) was 0.903 and the drug sensitivity score (CAL-120) was 7.25. It also gave a drug sensitivity score (CAL-148) of 0.922, a drug sensitivity score (CAL-51) of 3.79 and a drug sensitivity score (CAL-85-1) of 0. It also gave a drug sensitivity score (DU-4475 [12]) of 0, a drug sensitivity score (HCC1143) of 0 and a drug sensitivity score (HCC1599 [13]) of 2.44. For the same molecule, the drug sensitivity score (HCC1937) was 0, the drug sensitivity score (HDQ-P1 [14]) was 4.79 and the drug sensitivity score (Hs578T) was 0.512. It also gave a drug sensitivity score (MDA-MB-231 [15]) of 7.46, a drug sensitivity score (MDA-MB-436 [16]) of 0 and a drug sensitivity score (MDA-MB-453 [17]) of 5.67. It also gave a drug sensitivity score (MDA-MB-468) of 0, a drug sensitivity score (MFM-223 [18]) of 14.6 and a drug sensitivity score (SK-BR-3) of 0.

For `Cn1c(Nc2ccc(C(F)(F)F)cc2)nc2cc(Oc3ccnc(-c4ncc(C(F)(F)F)[nH]4)c3)ccc21` [RAF265], the normalised viability (BT-474 [1]; 10 nM) was 103%, the normalised viability (BT-549 [2]; 10 nM) was 84.1% and the normalised viability (DU-4475 [3]; 1 nM) was 92.1%. For the same molecule, the normalised viability (HCC1599 [4]; 10 nM) was 97.2%, the normalised viability (HDQ-P1 [5]; 1 nM) was 109% and the normalised viability (MDA-MB-231 [6]; 10 nM) was 100%. The normalised viability (MDA-MB-436 [7]; 10 nM) was 98.9%, the normalised viability (MDA-MB-453 [8]; 1 nM) was 100% and the normalised viability (MFM-223 [9]; 10 nM) was 88%. The drug sensitivity score (BT-474 [10]) was 0, the drug sensitivity score (BT-549 [11]) was 5.55 and the drug sensitivity score (CAL-120) was 6.51. The drug sensitivity score (CAL-148) was 0, the drug sensitivity score (CAL-51) was 3.43 and the drug sensitivity score (CAL-85-1) was 0. It also gave a drug sensitivity score (DU-4475 [12]) of 3.23, a drug sensitivity score (HCC1143) of 7.68 and a drug sensitivity score (HCC1599 [13]) of 0. The drug sensitivity score (HCC1937) was 4.12, the drug sensitivity score (HDQ-P1 [14]) was 9.94 and the drug sensitivity score (Hs578T) was 1.15. The drug sensitivity score (MDA-MB-231 [15]) was 4.5, the drug sensitivity score (MDA-MB-436 [16]) was 2.55 and the drug sensitivity score (MDA-MB-453 [17]) was 0. The drug sensitivity score (MDA-MB-468) was 0.566, the drug sensitivity score (MFM-223 [18]) was 5.45 and the drug sensitivity score (SK-BR-3) was 0.
